A word on the EC50: it is the midpoint of the concentration-response curve.

Assay type in all cases: cell-based
One assay concerns the target T1, hTAS2R1 (Homo sapiens, UniProt Q9NYW7).
T1 construct: expressed in transfected cells; host or cells: HEK293T cells stably expressing chimeric Gα16gust44, transient transfection
T1 sequence (Q9NYW7 1-299): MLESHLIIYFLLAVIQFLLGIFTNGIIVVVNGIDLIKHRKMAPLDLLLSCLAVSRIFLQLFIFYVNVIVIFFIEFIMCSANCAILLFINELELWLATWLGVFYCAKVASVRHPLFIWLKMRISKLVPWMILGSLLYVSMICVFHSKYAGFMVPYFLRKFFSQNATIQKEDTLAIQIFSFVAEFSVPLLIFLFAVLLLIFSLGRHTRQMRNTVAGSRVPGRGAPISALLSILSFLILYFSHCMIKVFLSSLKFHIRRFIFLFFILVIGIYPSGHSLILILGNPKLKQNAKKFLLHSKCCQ
Briefly: calcium imaging (FLIPR), activation of hTAS2R-transfected HEK293T-Gα16gust44 cells. The note with it: 100 μM test substance, bath application. The text has this:
(§1) Human TAS2R cDNAs were cloned into pcDNA5/FRT (Invitrogen, San Diego, Calif.). For adequate plasma membrane targeting, receptor cDNA was fused to the aminoterminal sequence of the rat somatostatin type 3 receptor at the aminoterminus of the recombinant protein (Bufe, B., T. Hofmann, et al. (2002) Nat Genet. 32(3): 397-401). For immunological detection, the Herpes simplex Glycoprotein D epitope was supplemented at the carboxyterminus of the recombinant protein (Bufe et al., supra). Receptor constructs were transiently transfected into HEK293T cells stably expressing the chimeric G protein subunit Gα16gust44 (Ueda, T., S. Ugawa, et al. (2003) J Neurosci 23(19): 7376-80) using Lipofectamine 2000 (Invitrogen, San Diego, Calif.) in 96-well plates.
(§2) Calcium Imaging experiments were performed 24 h after transfection using a Fluorometric Imaging Plate Reader (FLIPR, Molecular Devices, Munich, Germany) as previously described (Bufe et al., supra). Taste active compounds were ordered from Sigma (Sigma-Aldrich, Taufkirchen, Germany). Absinthin, 3β hydroxy dihydro costunolide and 3β hydroxy pelenolide were kindly provided by Giovanni Appendino (Novara, Italy). Test substances were directly dissolved in C1 buffer (130 mM NaCl, 10 mM Na-Hepes, 10 mM Glucose, 5 mM KCl, 2 mM CaCl2, pH 7.4) or in DMSO, respectively. DMSO stocks were further diluted in C1 buffer not exceeding a final DMSO concentration of 1% on the cells. For the investigation of antagonistic effects, test substances were premixed. Agonists were applied at concentrations corresponding to EC90, except where indicated otherwise (Table 2). Data were collected from 3 independent experiments performed in quadruplicates and processed with SigmaPlot (SPSS, Chicago, Ill.). Fluorescence signals after application of test substances were corrected for and normalized to background fluorescence (ΔF/F═(F−F0)/F0), and baseline noise was subtracted. Calculation of dose-response curves was done by nonlinear regression using the function f(y)=((a−d)/(1+(x/EC50)^nH)+d).
(§3) In a first series of experiments we tested the two sesquiterpene lactones 3β hydroxy dihydro costunolide (formula (I) in FIG. 1) and 3β hydroxy pelenolide (formula (II) in FIG. 1) for their ability to activate hTAS2 receptor-expressing HEK293T cells.
(§4) Signal amplitudes were comparatively small (FIG. 2C).

For another assay, the target named is T2, hTAS2R38 (Homo sapiens, UniProt P59533).
T2 construct: expressed in transfected cells; host or cells: HEK293T cells stably expressing chimeric Gα16gust44, transient transfection
T2 sequence (P59533 1-333): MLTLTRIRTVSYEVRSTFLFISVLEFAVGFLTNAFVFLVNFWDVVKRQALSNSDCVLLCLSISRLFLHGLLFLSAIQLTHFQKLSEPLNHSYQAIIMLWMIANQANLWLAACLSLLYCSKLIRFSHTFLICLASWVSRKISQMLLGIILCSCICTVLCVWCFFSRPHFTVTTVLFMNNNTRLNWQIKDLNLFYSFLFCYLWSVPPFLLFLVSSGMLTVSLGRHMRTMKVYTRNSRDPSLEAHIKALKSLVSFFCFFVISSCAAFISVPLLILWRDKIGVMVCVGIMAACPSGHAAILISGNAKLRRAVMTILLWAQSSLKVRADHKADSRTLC
Described as above. The note with it: 100 μM test substance, bath application; DMSO control.
From the text: as §1, §2, §3, §4

The next assay concerns the target T3, hTAS2R8 (Homo sapiens, UniProt Q9NYW2).
T3 construct: expressed in transfected cells; host or cells: HEK293T cells stably expressing chimeric Gα16gust44, transient transfection
T3 sequence (Q9NYW2 1-309): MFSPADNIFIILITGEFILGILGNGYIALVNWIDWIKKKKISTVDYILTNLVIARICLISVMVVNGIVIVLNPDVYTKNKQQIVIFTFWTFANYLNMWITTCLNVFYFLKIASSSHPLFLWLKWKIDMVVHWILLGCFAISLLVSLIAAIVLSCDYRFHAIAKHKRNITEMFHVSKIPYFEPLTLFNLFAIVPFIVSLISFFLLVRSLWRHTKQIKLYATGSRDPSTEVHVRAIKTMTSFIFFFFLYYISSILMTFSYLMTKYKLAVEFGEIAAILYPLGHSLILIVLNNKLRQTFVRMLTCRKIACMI
The assay is described as above. The note with it: 100 μM test substance, bath application.
From the text: as §1, §2, §3, §4

Assay [1] addresses T4, hTAS2R44 (Homo sapiens, UniProt P59538, L162M).
T4 construct: expressed in transfected cells; host or cells: HEK293T cells stably expressing chimeric Gα16gust44, transient transfection
T4 sequence (P59538 1-309 L162M): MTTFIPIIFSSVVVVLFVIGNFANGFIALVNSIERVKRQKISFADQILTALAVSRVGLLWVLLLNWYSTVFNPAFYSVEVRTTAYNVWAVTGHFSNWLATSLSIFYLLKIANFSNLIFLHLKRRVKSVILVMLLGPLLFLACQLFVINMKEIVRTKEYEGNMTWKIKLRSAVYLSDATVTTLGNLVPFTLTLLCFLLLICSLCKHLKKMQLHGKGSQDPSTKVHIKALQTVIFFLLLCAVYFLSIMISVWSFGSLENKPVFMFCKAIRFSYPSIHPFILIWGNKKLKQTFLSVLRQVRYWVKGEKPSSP
Described as above.
From the text: as §1, §2, §3, §4

The target of assay [2] is T4, hTAS2R44. Briefly: calcium imaging (FLIPR), effect on agonist-dependent hTAS2R activation. The note with it: 100 μM test substance; agonist aristolochic acids 3 μM (EC90); agonist alone = 100%.
From the text: as §1, §2
To test 3β hydroxy dihydro costunolide and 3β hydroxy pelenolide for antagonistic or enhancing effects on hTAS2R activation, transfected cells were stimulated with cognate agonist bitter substances at EC90 concentrations (Table 2) without 3β hydroxy dihydro costunolide and 3β hydroxy pelenolide. The cellular responses after application of the agonist alone were set to 100%, responses obtained after coapplication of agonists and 100 μM 3β hydroxy dihydro costunolide or 100 μM 3β hydroxy pelenolide are shown relative to this value (FIG. 4).

For the molecule `C/C1=C\C[C@H](O)/C(C)=C/[C@H]2OC(=O)[C@@H](C)C2CC1` (stereo partly drawn) [3β hydroxy dihydro costunolide], the “calcium response of hTAS2R1-transfected cells” value on hTAS2R1 is “responded”. Besides, the “calcium response of hTAS2R38-transfected cells” value on hTAS2R38 is reported as “generated by DMSO used as solvent”. Besides, the “calcium response of hTAS2R8-transfected cells” value at hTAS2R8 is on record as “responded”. Also, the “calcium response of hTAS2R44-transfected cells” value at hTAS2R44 [1] (100 μM test substance, bath application) is “responded”. Also, at hTAS2R44 [1] (concentration-response, intracellular calcium), the half-maximal effective concentration (EC50) is 31.5 ± 7.4 µM.
Consider `C/C1=C\C[C@H](O)[C@@H](C)C[C@H]2OC(=O)[C@@H](C)[C@@H]2CC1` [3β hydroxy pelenolide], for which the “agonist-dependent response of hTAS2R44-expressing cells on coapplication” value on hTAS2R44 [2] is “moderately attenuating effect”.

Source of the values: US8673578B2, “Methods of identifying antagonists of the hTAS2R46 bitter taste receptor” (Deutsches Institut für Ernahrungsforschung Potsdam-Rehbrücke, priority 2009, dated 2014).
